{
  "source": "paper PMC7948422",
  "about": "“Repurposing p97 inhibitors for chemical modulation of the bacterial ClpB–DnaK bichaperone system” (The Journal of Biological Chemistry, 2020)",
  "key": {"ClpB E279Q, E678Q": {"test_system": "ClpB E279Q, E678Q", "test": "ATPase activity of ClpB Walker B variants E279Q and E678Q", "format": "biochemical, Escherichia coli", "settings": "with/without κ-casein", "method": "To determine the ATPase activity, ClpB was diluted to 28 μg/ml (49-nM hexamer) in buffer C (50-mM Tris-HCl, pH 7.4, 20-mM MgCl2, 1-mM EDTA, 0.5-mM tris(2-carboxyethyl)phosphine [TCEP]). In some experiments, the ClpB solution was supplemented with 17.4 μg/ml (10 μM) κ-casein. The ClpB aliquots (18 μl) were mixed with 1 μl of the investigated compounds at different concentrations in 100% DMSO or with DMSO as a control. A sample without ClpB was used as a baseline control. After a 10-min preincubation at 37 or 45 °C, the ATP hydrolysis reaction was initiated by adding 1 μl of 100-mM ATP. The samples were incubated for 60 min (basal ClpB activity in the absence of κ-casein) or 15 min (in the presence of κ-casein) at 37 °C or 30 min at 45 °C in the absence of casein. For the E678Q ClpB variant, the incubation time in the presence of κ-casein was 60 min. After incubation, 15 μl of each sample was mixed with 200 μl of the ammonium molybdate/malachite green reagent ([67]) dispensed into a 96-well plate, followed by an addition of 30 μl of 34% sodium citrate ([68]). The plate was agitated inside a Synergy H1 reader (BioTek, Winooski, VT) for 15 min at room temperature, and the samples’ absorbance was measured at 630 nm. The readouts for ClpB-containing samples were corrected for absorbance of samples without ClpB, to account for nonenzymatic production of inorganic phosphate. […]"}, "[1]": {"test_system": "ΔclpB E. coli expressing ClpB–YFP", "test": "Viability of ΔclpB strain expressing ClpB-YFP", "format": "cell-based, Escherichia coli", "settings": "45 °C, 3 h", "method": "(§1) E. coli MC4100, MC4100ΔclpB, dnaK103, and dnaK756 strains were used to determine an influence of DBeQ on bacterial growth and viability. Bacteria were maintained in the LB media, and in the case of the MC4100ΔclpB strain, LB was supplemented with 30 μg/ml kanamycin. All experiments were initiated by preparing overnight cultures inoculated from single colonies and grown at 37 °C. The dnaK103 and dnaK756 overnight cultures were grown at 30 °C. On the following day, the cultures were diluted 100-fold in 10 ml of LB without antibiotics and incubated at 37 °C. The culture optical density was monitored at 600 nm. When absorbance at 600 nm reached 0.4, the culture was divided into 1-ml aliquots and supplemented with 10 μl of DMSO or different concentrations of DBeQ in DMSO. The samples were immediately transferred into an incubator/shaker at temperature 37, 45, or 50 °C. Bacteria were cultured for up to 4 h with shaking (200 RPM). […] On the following day, the bacterial colonies were counted and the colony-forming units/ml were calculated.\nSupplementary Figure 10. […] (Top) ClpB was detected using Western blotting. […]\n(Bottom) Western blot analysis of the bacterial lysates with anti-ClpB antibody. […] The detected signals correspond to the full-length ClpB-YFP (ClpB95-YFP) and the N-terminally truncated ClpB80-YFP (1,2). […]"}, "E. coli dnaK103": {"test_system": "E. coli dnaK103", "test": "Bacterial viability, dnaK103", "format": "cell-based, Escherichia coli", "settings": "45 °C", "method": "as §1, with “RPM). At specific time points, 100 μl of each culture was withdrawn and serially diluted in sterile 0.9% NaCl up to 10^6-fold dilution. To estimate the number of viable cells, 5 μl or 10 μl of the diluted cultures was spread on the LB-agar plate without an antibiotic.” for “RPM).”"}, "E. coli dnaK756": {"test_system": "E. coli dnaK756", "test": "Bacterial viability, dnaK756", "format": "cell-based, Escherichia coli", "settings": "45 °C", "method": "as §1, with “RPM). At specific time points, 100 μl of each culture was withdrawn and serially diluted in sterile 0.9% NaCl up to 10^6-fold dilution. To estimate the number of viable cells, 5 μl or 10 μl of the diluted cultures was spread on the LB-agar plate without an antibiotic.” for “RPM).”"}},
  "data": [
    {"smiles": "c1ccc(CNc2nc(NCc3ccccc3)c3ccccc3n2)cc1", "note": "[DBeQ, N^2,N^4-dibenzylquinazoline-2,4-diamine]", "values": [
      {"measurement": "effect on ATPase of the two ATP-binding domains (D1, D2)", "setting": "ClpB E279Q, E678Q", "value": "only the C-terminal one (i.e., D2) showed casein-induced activation and was affected by DBeQ"},
      {"measurement": "susceptibility of ΔclpB strain on expression of ClpB–YFP", "setting": "[1]", "value": "susceptibility to DBeQ was restored"},
      {"measurement": "effect on viability of dnaK103", "setting": "E. coli dnaK103", "value": "suppressed viability"},
      {"measurement": "effect on viability of dnaK756", "setting": "E. coli dnaK756", "value": "not affected"}
    ]}
  ]
}
